{"source": "the supplement of paper PMC10307832", "test_in_all_cases": "relative viability (nuclei count vs DMSO), 5 days (fraction); higher = more cells survive", "key": {"[1]": {"test_system": "NCI-H1651", "summary_of_the_method": "(§1)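 Dosing by pin tool came one day after lung cancer cell lines were seeded in 1536-well plates, using either one drug or a fixed anchor-drug dose plus five library-drug doses (not always all listed) in √10 steps. After 5 days, nuclei were counted on 4× images. Relative viability is treated-well nuclei count divided by vehicle-well nuclei count, and values are medians of duplicate plates.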"}, "[2]": {"test_system": "NCI-H460", "summary_of_the_method": "as §1"}, "[3]": {"test_system": "NCI-H2170", "summary_of_the_method": "as §1"}, "[4]": {"test_system": "NCI-H1944", "summary_of_the_method": "as §1"}, "[5]": {"test_system": "RERF-LC-KJ", "summary_of_the_method": "as §1"}, "[6]": {"test_system": "ChaGo-K-1", "summary_of_the_method": "as §1"}, "[7]": {"test_system": "NCI-H2087", "summary_of_the_method": "as §1"}, "[8]": {"test_system": "NCI-H2405", "summary_of_the_method": "as §1"}, "[9]": {"test_system": "CAL-12T", "summary_of_the_method": "as §1"}, "[10]": {"test_system": "NCI-H1734", "summary_of_the_method": "as §1"}, "[11]": {"test_system": "LOU-NH91", "summary_of_the_method": "as §1"}, "[12]": {"test_system": "LU99A", "summary_of_the_method": "as §1"}, "[13]": {"test_system": "UMC-11", "summary_of_the_method": "as §1"}, "[14]": {"test_system": "PC-3 [JPC-3]", "summary_of_the_method": "as §1"}, "[15]": {"test_system": "ABC-1", "summary_of_the_method": "as §1"}, "[16]": {"test_system": "NCI-H3122", "summary_of_the_method": "as §1"}, "[17]": {"test_system": "HCC-78", "summary_of_the_method": "as §1"}, "[18]": {"test_system": "HCC-366", "summary_of_the_method": "as §1"}, "[19]": {"test_system": "NCI-H1395", "summary_of_the_method": "as §1"}, "[20]": {"test_system": "NCI-H2228", "summary_of_the_method": "as §1"}, "[21]": {"test_system": "EPLC-272H", "summary_of_the_method": "as §1"}, "[22]": {"test_system": "LC-2-ad", "summary_of_the_method": "as §1"}, "[23]": {"test_system": "NCI-H1755", "summary_of_the_method": "as §1"}, "[24]": {"test_system": "NCI-H1793", "summary_of_the_method": "as §1"}}, "data": [{"smiles": "C[C@@H]1CN(CC(=O)Nc2ccc3c(c2)Cc2cccc(-c4cc(=O)cc(N5CCOCC5)o4)c2S3)C[C@H](C)O1", "note": "+ COc1cc2c(Oc3ccc(NC(=O)C4(C(=O)Nc5ccc(F)cc5)CC4)cc3F)ccnc2cc1OCCCN1CCOCC1 [Foretinib] (partner 0.25 µM)", "values": [{"measurement": "relative viability", "setting": "[1]; first compound 0.04 µM", "value": 0.924}, {"measurement": "relative viability", "setting": "[1]; first compound 0.1265 µM", "value": 1.14}, {"measurement": "relative viability", "setting": "[1]; first compound 0.4 µM", "value": 0.96}, {"measurement": "relative viability", "setting": "[1]; first compound 4 µM", "value": 0.679}, {"measurement": "relative viability", "setting": "[2]; first compound 0.04 µM", "value": 0.898}, {"measurement": "relative viability", "setting": "[2]; first compound 0.1265 µM", "value": 1.02}, {"measurement": "relative viability", "setting": "[2]; first compound 0.4 µM", "value": 1.1}, {"measurement": "relative viability", "setting": "[2]; first compound 4 µM", "value": 0.862}, {"measurement": "relative viability", "setting": "[3]; first compound 0.04 µM", "value": 1.08}, {"measurement": "relative viability", "setting": "[3]; first compound 0.1265 µM", "value": 0.97}, {"measurement": "relative viability", "setting": "[3]; first compound 0.4 µM", "value": 0.648}, {"measurement": "relative viability", "setting": "[3]; first compound 4 µM", "value": 1}, {"measurement": "relative viability", "setting": "[4]; first compound 0.04 µM", "value": 0.761}, {"measurement": "relative viability", "setting": "[4]; first compound 0.1265 µM", "value": 0.888}, {"measurement": "relative viability", "setting": "[4]; first compound 0.4 µM", "value": 0.926}, {"measurement": "relative viability", "setting": "[4]; first compound 4 µM", "value": 0.912}, {"measurement": "relative viability", "setting": "[5]; first compound 0.04 µM", "value": 0.826}, {"measurement": "relative viability", "setting": "[5]; first compound 0.1265 µM", "value": 0.88}, {"measurement": "relative viability", "setting": "[5]; first compound 0.4 µM", "value": 0.827}, {"measurement": "relative viability", "setting": "[5]; first compound 4 µM", "value": 0.871}, {"measurement": "relative viability", "setting": "[6]; first compound 0.04 µM", "value": 0.793}, {"measurement": "relative viability", "setting": "[6]; first compound 0.1265 µM", "value": 0.929}, {"measurement": "relative viability", "setting": "[6]; first compound 0.4 µM", "value": 0.892}, {"measurement": "relative viability", "setting": "[6]; first compound 4 µM", "value": 0.825}, {"measurement": "relative viability", "setting": "[7]; first compound 0.04 µM", "value": 1.15}, {"measurement": "relative viability", "setting": "[7]; first compound 0.1265 µM", "value": 0.954}, {"measurement": "relative viability", "setting": "[7]; first compound 0.4 µM", "value": 1.05}, {"measurement": "relative viability", "setting": "[7]; first compound 4 µM", "value": 0.801}, {"measurement": "relative viability", "setting": "[8]; first compound 0.04 µM", "value": 1.02}, {"measurement": "relative viability", "setting": "[8]; first compound 0.1265 µM", "value": 1.08}, {"measurement": "relative viability", "setting": "[8]; first compound 0.4 µM", "value": 1.03}, {"measurement": "relative viability", "setting": "[8]; first compound 4 µM", "value": 1.03}, {"measurement": "relative viability", "setting": "[9]; first compound 0.04 µM", "value": 1.13}, {"measurement": "relative viability", "setting": "[9]; first compound 0.1265 µM", "value": 1.06}, {"measurement": "relative viability", "setting": "[9]; first compound 0.4 µM", "value": 1.01}, {"measurement": "relative viability", "setting": "[9]; first compound 4 µM", "value": 0.764}, {"measurement": "relative viability", "setting": "[10]; first compound 0.04 µM", "value": 0.881}, {"measurement": "relative viability", "setting": "[10]; first compound 0.1265 µM", "value": 0.851}, {"measurement": "relative viability", "setting": "[10]; first compound 0.4 µM", "value": 0.789}, {"measurement": "relative viability", "setting": "[10]; first compound 4 µM", "value": 0.976}, {"measurement": "relative viability", "setting": "[11]; first compound 0.04 µM", "value": 1}, {"measurement": "relative viability", "setting": "[11]; first compound 0.1265 µM", "value": 0.96}, {"measurement": "relative viability", "setting": "[11]; first compound 0.4 µM", "value": 0.943}, {"measurement": "relative viability", "setting": "[11]; first compound 4 µM", "value": 0.897}, {"measurement": "relative viability", "setting": "[12]; first compound 0.04 µM", "value": 0.79}, {"measurement": "relative viability", "setting": "[12]; first compound 0.1265 µM", "value": 0.959}, {"measurement": "relative viability", "setting": "[12]; first compound 0.4 µM", "value": 1.02}, {"measurement": "relative viability", "setting": "[12]; first compound 4 µM", "value": 0.854}, {"measurement": "relative viability", "setting": "[13]; first compound 0.04 µM", "value": 1.1}, {"measurement": "relative viability", "setting": "[13]; first compound 0.1265 µM", "value": 0.995}, {"measurement": "relative viability", "setting": "[13]; first compound 0.4 µM", "value": 1.1}, {"measurement": "relative viability", "setting": "[13]; first compound 4 µM", "value": 0.746}, {"measurement": "relative viability", "setting": "[14]; first compound 0.04 µM", "value": 1.02}, {"measurement": "relative viability", "setting": "[14]; first compound 0.1265 µM", "value": 0.998}, {"measurement": "relative viability", "setting": "[14]; first compound 0.4 µM", "value": 0.93}, {"measurement": "relative viability", "setting": "[14]; first compound 4 µM", "value": 0.884}, {"measurement": "relative viability", "setting": "[15]; first compound 0.1265 µM", "value": 1.11}, {"measurement": "relative viability", "setting": "[15]; first compound 0.4 µM", "value": 1.06}, {"measurement": "relative viability", "setting": "[15]; first compound 4 µM", "value": 0.928}, {"measurement": "relative viability", "setting": "[16]; first compound 0.04 µM", "value": 1.03}, {"measurement": "relative viability", "setting": "[16]; first compound 0.1265 µM", "value": 0.902}, {"measurement": "relative viability", "setting": "[16]; first compound 0.4 µM", "value": 0.961}, {"measurement": "relative viability", "setting": "[16]; first compound 4 µM", "value": 0.914}, {"measurement": "relative viability", "setting": "[17]; first compound 0.04 µM", "value": 0.554}, {"measurement": "relative viability", "setting": "[17]; first compound 0.1265 µM", "value": 0.579}, {"measurement": "relative viability", "setting": "[17]; first compound 0.4 µM", "value": 0.513}, {"measurement": "relative viability", "setting": "[17]; first compound 4 µM", "value": 0.468}, {"measurement": "relative viability", "setting": "[18]; first compound 0.04 µM", "value": 0.922}, {"measurement": "relative viability", "setting": "[18]; first compound 0.1265 µM", "value": 0.929}, {"measurement": "relative viability", "setting": "[18]; first compound 0.4 µM", "value": 1.1}, {"measurement": "relative viability", "setting": "[18]; first compound 4 µM", "value": 0.913}, {"measurement": "relative viability", "setting": "[19]; first compound 0.04 µM", "value": 1.06}, {"measurement": "relative viability", "setting": "[19]; first compound 0.1265 µM", "value": 1.07}, {"measurement": "relative viability", "setting": "[19]; first compound 0.4 µM", "value": 0.982}, {"measurement": "relative viability", "setting": "[19]; first compound 4 µM", "value": 0.866}, {"measurement": "relative viability", "setting": "[20]; first compound 0.04 µM", "value": 0.82}, {"measurement": "relative viability", "setting": "[20]; first compound 0.1265 µM", "value": 0.689}, {"measurement": "relative viability", "setting": "[20]; first compound 0.4 µM", "value": 0.726}, {"measurement": "relative viability", "setting": "[20]; first compound 4 µM", "value": 0.816}, {"measurement": "relative viability", "setting": "[21]; first compound 0.04 µM", "value": 0.643}, {"measurement": "relative viability", "setting": "[21]; first compound 0.1265 µM", "value": 0.817}, {"measurement": "relative viability", "setting": "[21]; first compound 0.4 µM", "value": 0.761}, {"measurement": "relative viability", "setting": "[21]; first compound 4 µM", "value": 0.674}, {"measurement": "relative viability", "setting": "[22]; first compound 0.04 µM", "value": 0.863}, {"measurement": "relative viability", "setting": "[22]; first compound 0.1265 µM", "value": 0.921}, {"measurement": "relative viability", "setting": "[22]; first compound 0.4 µM", "value": 0.913}, {"measurement": "relative viability", "setting": "[22]; first compound 4 µM", "value": 0.874}, {"measurement": "relative viability", "setting": "[23]; first compound 0.04 µM", "value": 0.914}, {"measurement": "relative viability", "setting": "[23]; first compound 0.1265 µM", "value": 0.887}, {"measurement": "relative viability", "setting": "[23]; first compound 0.4 µM", "value": 0.875}, {"measurement": "relative viability", "setting": "[23]; first compound 4 µM", "value": 0.798}, {"measurement": "relative viability", "setting": "[24]; first compound 0.04 µM", "value": 0.556}, {"measurement": "relative viability", "setting": "[24]; first compound 0.1265 µM", "value": 0.72}, {"measurement": "relative viability", "setting": "[24]; first compound 0.4 µM", "value": 0.809}, {"measurement": "relative viability", "setting": "[24]; first compound 4 µM", "value": 0.476}]}]}
